According to PMC10882719 (Frontiers in Neuroscience, 2024):
Read-outs that look alike come from different tables or passages of the source.

Experiments:
Format in all cases: cell-based
168 GPCRs [1] = molecular target: T1, 168 GPCRs (Homo sapiens, UniProt P25024)
T1 construct: host or cells: PathHunter cell lines
T1 sequence (P25024 1-350): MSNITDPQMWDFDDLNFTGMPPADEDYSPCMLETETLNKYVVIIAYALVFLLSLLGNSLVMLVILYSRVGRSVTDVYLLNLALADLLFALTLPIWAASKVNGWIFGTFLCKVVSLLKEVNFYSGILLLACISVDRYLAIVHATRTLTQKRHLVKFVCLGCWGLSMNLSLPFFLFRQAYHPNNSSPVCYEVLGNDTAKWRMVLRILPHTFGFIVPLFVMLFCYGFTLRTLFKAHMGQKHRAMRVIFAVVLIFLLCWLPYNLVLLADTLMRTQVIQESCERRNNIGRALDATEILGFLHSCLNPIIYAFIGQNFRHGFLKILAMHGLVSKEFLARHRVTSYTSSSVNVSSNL

168 GPCRs [2] = molecular target: T2, 168 GPCRs (Homo sapiens, UniProt P33032); details: MC5R
T2 construct: host or cells: PathHunter cell lines
T2 sequence (P33032 whole entry): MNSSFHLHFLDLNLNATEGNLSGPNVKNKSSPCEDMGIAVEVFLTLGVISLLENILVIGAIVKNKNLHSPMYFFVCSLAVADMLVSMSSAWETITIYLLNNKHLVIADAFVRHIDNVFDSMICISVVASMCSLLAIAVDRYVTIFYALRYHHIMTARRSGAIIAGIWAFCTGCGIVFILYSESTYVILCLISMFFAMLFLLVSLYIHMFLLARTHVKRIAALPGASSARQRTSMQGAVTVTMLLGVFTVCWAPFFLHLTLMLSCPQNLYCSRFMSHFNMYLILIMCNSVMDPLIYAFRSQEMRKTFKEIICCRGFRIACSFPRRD

168 GPCRs [3] = molecular target: T3, 168 GPCRs (Homo sapiens, UniProt Q8NFJ6); details: PROKR2
T3 construct: host or cells: PathHunter cell lines
T3 sequence (Q8NFJ6 whole entry): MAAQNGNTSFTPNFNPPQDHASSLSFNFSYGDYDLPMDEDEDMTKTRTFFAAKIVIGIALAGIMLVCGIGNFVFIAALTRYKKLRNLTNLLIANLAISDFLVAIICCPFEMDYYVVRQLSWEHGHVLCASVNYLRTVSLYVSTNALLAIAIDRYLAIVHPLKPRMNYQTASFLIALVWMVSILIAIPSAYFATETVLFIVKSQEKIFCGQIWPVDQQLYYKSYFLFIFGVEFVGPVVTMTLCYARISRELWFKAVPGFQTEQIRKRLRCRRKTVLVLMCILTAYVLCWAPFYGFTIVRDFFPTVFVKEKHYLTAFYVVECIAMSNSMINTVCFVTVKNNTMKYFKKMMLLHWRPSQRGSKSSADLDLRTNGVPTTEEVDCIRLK

168 GPCRs [4] = molecular target: T4, 168 GPCRs (Homo sapiens, UniProt P37288); details: AVPR1a
T4 construct: host or cells: PathHunter cell lines
T4 sequence (P37288 whole entry): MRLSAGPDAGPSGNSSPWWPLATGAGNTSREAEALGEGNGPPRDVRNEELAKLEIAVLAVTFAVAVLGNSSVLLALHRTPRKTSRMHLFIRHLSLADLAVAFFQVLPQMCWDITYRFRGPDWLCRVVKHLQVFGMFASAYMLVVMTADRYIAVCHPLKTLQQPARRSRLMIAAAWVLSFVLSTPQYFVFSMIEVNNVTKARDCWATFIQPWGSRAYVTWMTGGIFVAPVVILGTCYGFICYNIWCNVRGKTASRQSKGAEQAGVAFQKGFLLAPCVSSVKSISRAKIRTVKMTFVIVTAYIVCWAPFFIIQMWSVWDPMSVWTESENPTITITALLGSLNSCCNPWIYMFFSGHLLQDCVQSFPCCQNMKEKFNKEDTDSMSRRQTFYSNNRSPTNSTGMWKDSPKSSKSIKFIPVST

168 GPCRs [5] = molecular target: T5, 168 GPCRs (Homo sapiens, UniProt P41968); details: MC3R
T5 construct: host or cells: PathHunter cell lines
T5 sequence (P41968 whole entry): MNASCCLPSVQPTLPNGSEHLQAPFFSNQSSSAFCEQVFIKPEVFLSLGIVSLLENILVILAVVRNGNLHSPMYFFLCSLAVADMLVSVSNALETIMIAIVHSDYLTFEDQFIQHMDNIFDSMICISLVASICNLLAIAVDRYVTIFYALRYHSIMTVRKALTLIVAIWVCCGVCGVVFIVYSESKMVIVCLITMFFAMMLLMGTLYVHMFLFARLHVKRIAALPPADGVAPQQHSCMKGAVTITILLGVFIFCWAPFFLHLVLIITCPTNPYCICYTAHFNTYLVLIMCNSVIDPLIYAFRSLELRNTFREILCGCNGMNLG

168 GPCRs [6] = molecular target: T6, 168 GPCRs (Homo sapiens, UniProt P51681)
T6 construct: host or cells: PathHunter cell lines
T6 sequence (P51681 whole entry): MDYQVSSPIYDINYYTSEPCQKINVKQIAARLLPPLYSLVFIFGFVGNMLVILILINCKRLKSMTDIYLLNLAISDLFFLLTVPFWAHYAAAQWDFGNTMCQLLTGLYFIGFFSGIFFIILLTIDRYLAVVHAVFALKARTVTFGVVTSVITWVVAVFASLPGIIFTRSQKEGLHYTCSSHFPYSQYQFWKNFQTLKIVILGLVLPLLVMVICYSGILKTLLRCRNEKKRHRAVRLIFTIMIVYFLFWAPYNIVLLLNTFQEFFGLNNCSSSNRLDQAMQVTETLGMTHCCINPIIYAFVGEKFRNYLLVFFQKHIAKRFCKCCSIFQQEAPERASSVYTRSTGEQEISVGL

168 GPCRs [7] = molecular target: T7, 168 GPCRs (Homo sapiens, UniProt P35372); details: OPRM1
T7 construct: host or cells: PathHunter cell lines
T7 sequence (P35372 whole entry): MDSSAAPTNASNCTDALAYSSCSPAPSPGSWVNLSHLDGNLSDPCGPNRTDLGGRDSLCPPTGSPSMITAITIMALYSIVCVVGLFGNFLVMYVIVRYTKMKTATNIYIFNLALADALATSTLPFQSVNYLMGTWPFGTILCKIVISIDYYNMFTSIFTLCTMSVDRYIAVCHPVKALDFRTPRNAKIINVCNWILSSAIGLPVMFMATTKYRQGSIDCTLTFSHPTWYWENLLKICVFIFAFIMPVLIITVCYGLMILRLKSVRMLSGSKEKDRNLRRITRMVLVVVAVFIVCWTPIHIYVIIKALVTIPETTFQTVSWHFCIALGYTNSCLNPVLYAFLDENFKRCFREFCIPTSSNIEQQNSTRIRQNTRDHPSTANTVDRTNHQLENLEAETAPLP

168 GPCRs [8] = molecular target: T8, 168 GPCRs (Homo sapiens, UniProt P21462)
T8 construct: host or cells: PathHunter cell lines
T8 sequence (P21462 1-350): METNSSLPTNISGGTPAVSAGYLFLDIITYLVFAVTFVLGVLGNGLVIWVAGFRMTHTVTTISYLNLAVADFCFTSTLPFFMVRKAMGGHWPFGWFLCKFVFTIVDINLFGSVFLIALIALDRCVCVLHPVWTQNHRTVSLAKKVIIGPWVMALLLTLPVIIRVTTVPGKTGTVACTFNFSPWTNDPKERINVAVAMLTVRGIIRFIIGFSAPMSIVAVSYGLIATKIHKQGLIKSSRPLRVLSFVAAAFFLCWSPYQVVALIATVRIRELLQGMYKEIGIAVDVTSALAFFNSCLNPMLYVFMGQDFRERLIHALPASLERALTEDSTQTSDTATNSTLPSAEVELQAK

168 GPCRs [9] = molecular target: T9, 168 GPCRs (Homo sapiens, UniProt Q15722); details: LTB4R
T9 construct: host or cells: PathHunter cell lines
T9 sequence (Q15722 whole entry): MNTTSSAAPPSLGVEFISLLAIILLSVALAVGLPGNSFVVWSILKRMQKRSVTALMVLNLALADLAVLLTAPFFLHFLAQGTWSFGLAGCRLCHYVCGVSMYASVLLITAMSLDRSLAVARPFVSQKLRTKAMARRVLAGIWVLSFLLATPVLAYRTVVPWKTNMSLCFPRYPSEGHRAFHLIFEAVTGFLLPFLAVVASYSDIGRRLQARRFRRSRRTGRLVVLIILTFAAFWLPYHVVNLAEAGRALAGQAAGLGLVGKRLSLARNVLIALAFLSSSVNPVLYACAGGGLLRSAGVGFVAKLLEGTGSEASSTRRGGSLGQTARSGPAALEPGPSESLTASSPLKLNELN

168 GPCRs [10] = molecular target: T10, 168 GPCRs (Homo sapiens, UniProt Q9NSD7); details: RXFP3
T10 construct: host or cells: PathHunter cell lines
T10 sequence (Q9NSD7 1-469): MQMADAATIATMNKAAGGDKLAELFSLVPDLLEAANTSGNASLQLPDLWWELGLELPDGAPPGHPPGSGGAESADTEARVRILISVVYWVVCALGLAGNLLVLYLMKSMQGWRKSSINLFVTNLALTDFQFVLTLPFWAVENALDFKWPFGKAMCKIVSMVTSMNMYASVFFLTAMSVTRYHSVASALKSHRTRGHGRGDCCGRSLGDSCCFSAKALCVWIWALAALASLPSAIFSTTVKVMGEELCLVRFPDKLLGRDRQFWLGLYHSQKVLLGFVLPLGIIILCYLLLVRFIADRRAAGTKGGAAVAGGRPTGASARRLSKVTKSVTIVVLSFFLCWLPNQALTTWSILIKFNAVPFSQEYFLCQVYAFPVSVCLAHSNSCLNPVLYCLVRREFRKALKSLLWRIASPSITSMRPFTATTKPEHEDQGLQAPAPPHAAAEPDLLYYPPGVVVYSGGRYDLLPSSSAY

SMILES	% Agonist Activity (168 GPCRs [1]; CXCR1, 1 uM)	% Antagonist Activity (168 GPCRs [1]; CXCR1, 1 uM)	% Agonist Activity (168 GPCRs [1]; CXCR1, 10 uM)	% Antagonist Activity (168 GPCRs [1]; CXCR1, 10 uM)	% Agonist Activity (168 GPCRs [2]; 1 uM)	% Antagonist Activity (168 GPCRs [2]; 1 uM)	% Agonist Activity (168 GPCRs [2]; 10 uM)	% Antagonist Activity (168 GPCRs [2]; 10 uM)	% Agonist Activity (168 GPCRs [3]; Conc 1 uM)	% Antagonist Activity (168 GPCRs [3]; Conc 1 uM)	% Agonist Activity (168 GPCRs [3]; Conc 10 uM)	% Antagonist Activity (168 GPCRs [3]; Conc 10 uM)	% Agonist Activity (168 GPCRs [4]; 1 uM)	% Antagonist Activity (168 GPCRs [4]; 1 uM)	% Agonist Activity (168 GPCRs [4]; 10 uM)	% Antagonist Activity (168 GPCRs [4]; 10 uM)	% Agonist Activity (168 GPCRs [5]; 1 uM)	% Antagonist Activity (168 GPCRs [5]; 1 uM)	% Agonist Activity (168 GPCRs [5]; 10 uM)	% Antagonist Activity (168 GPCRs [5]; 10 uM)	also measured
CNC(C)Cc1ccc2c(c1)OCO2 (centres unmarked) [MDMA, 3,4-Methylenedioxy methamphetamine, reference compound]	-0.4%	-2.4%	-0.3%	-4.6%	2.5%	-0.9%	1%	7.1%	-0.6%	14.4%	-0.3%	19.4%	-0.2%	-3.6%	-0.4%	4.5%	0.7%	5.9%	1.3%	1.9%	% Agonist Activity (168 GPCRs [6]; CCR5, 1 uM): 0.2%; % Antagonist Activity (168 GPCRs [6]; CCR5, 1 uM): 4.5%; % Agonist Activity (168 GPCRs [6]; CCR5, 10 uM): 0.1%; % Antagonist Activity (168 GPCRs [6]; CCR5, 10 uM): 9.8%; % Agonist Activity (168 GPCRs [7]; Conc 1 uM): -0.4%; % Antagonist Activity (168 GPCRs [7]; Conc 1 uM): -22.1%; % Agonist Activity (168 GPCRs [7]; Conc 10 uM): -0.2%; % Antagonist Activity (168 GPCRs [7]; Conc 10 uM): -18.9%; % Agonist Activity (168 GPCRs [8]; FPR1, 1 uM): 4.4%; % Antagonist Activity (168 GPCRs [8]; FPR1, 1 uM): 4.5%; % Agonist Activity (168 GPCRs [8]; FPR1, 10 uM): 3.7%; % Antagonist Activity (168 GPCRs [8]; FPR1, 10 uM): 2.5%; % Agonist Activity (168 GPCRs [9]; 1 uM): 0.5%; % Antagonist Activity (168 GPCRs [9]; 1 uM): 8.9%; % Agonist Activity (168 GPCRs [9]; 10 uM): 0.5%; % Antagonist Activity (168 GPCRs [9]; 10 uM): 11.3%; % Agonist Activity (168 GPCRs [10]; Conc 1 uM): -5.2%; % Antagonist Activity (168 GPCRs [10]; Conc 1 uM): 15.3%; % Agonist Activity (168 GPCRs [10]; Conc 10 uM): -0.7%; % Antagonist Activity (168 GPCRs [10]; Conc 10 uM): 19.1%
CNC(C)C(=O)c1ccc2c(c1)OCO2 (centres unmarked) [methylone]	-0.5%	12.1%	-0.1%	3.1%	-7.9%	1.7%	-8.9%	-6.3%	-0.6%	2%	-0.6%	-6.8%	-0.6%	-3%	-0.5%	2.8%	-3.2%	-5.7%	-1.8%	0.3%	% Agonist Activity (168 GPCRs [6]; CCR5, 1 uM): -0.1%; % Antagonist Activity (168 GPCRs [6]; CCR5, 1 uM): 1.7%; % Agonist Activity (168 GPCRs [6]; CCR5, 10 uM): 0.3%; % Antagonist Activity (168 GPCRs [6]; CCR5, 10 uM): -0.5%; % Agonist Activity (168 GPCRs [7]; Conc 1 uM): 0.2%; % Antagonist Activity (168 GPCRs [7]; Conc 1 uM): -8%; % Agonist Activity (168 GPCRs [7]; Conc 10 uM): 0.5%; % Antagonist Activity (168 GPCRs [7]; Conc 10 uM): -18%; % Agonist Activity (168 GPCRs [8]; FPR1, 1 uM): 2.2%; % Antagonist Activity (168 GPCRs [8]; FPR1, 1 uM): -4.9%; % Agonist Activity (168 GPCRs [8]; FPR1, 10 uM): 0.5%; % Antagonist Activity (168 GPCRs [8]; FPR1, 10 uM): -11.4%; % Agonist Activity (168 GPCRs [9]; 1 uM): -0.3%; % Antagonist Activity (168 GPCRs [9]; 1 uM): 3.5%; % Agonist Activity (168 GPCRs [9]; 10 uM): -0.8%; % Antagonist Activity (168 GPCRs [9]; 10 uM): -5.2%; % Agonist Activity (168 GPCRs [10]; Conc 1 uM): -7.6%; % Antagonist Activity (168 GPCRs [10]; Conc 1 uM): 23.1%; % Agonist Activity (168 GPCRs [10]; Conc 10 uM): -8.7%; % Antagonist Activity (168 GPCRs [10]; Conc 10 uM): 32.6%
